From patent US20120041009A1, “PYRIMIDINE COMPOUND AND ITS USE IN PEST CONTROL” (SUMITOMO CHEMICAL COMPANY, LIMITED, priority 2009, published 2012) come the findings set out here.

For the test, the system named is Tetranychus urticae. Nature of the test: Test Example 2: spray test against Tetranychus urticae on brush bean (Phaseolus vulgaris). Particulars: comparative compound, same conditions as in Test Example 2 (500 ppm); day not given. Format: in vivo. The protocol: The formulation of each of the present compounds (1), (3), (5), (7) to (11), (13), (14), (18), (20), (22), (24), (26), (27), (29), (30) and (33) to (35) obtained in Formulation Example 1 was diluted with water so as to adjust the concentration of the active ingredient to 500 ppm to prepare a test spray solution.
About sixty female imagines of Tetranychus urticae were released on brush bean (Phaseolus vulgaris) in the primary leaf stage, which had been potted in a polyethylene cup for 7 days after the seeding. One day after release of female imagines of Tetranychus urticae, 30 ml (per cup) of the test spray solution was sprayed over the brush bean seedling.
On the 8th and 13th day after spraying, the numbers of survival Tetranychus urticae on the leaf of the brush bean plant were examined, and the control rate was calculated by the following equation.
Control rate=100×{1−(number of survival Tetranychus urticae in treated section)/(number of survival Tetranychus urticae in non-treated section)}

Regarding `O=c1[nH]c(-c2cncnc2C(F)(F)F)no1` [comparative compound (C)], the control value entry was “less than 30%”.
